Assay results: patent US7872036B2, “3-triazolylphenyl sulfide derivative and insecticide, miticide and nematicide containing it as an active ingredient” (Kumiai Chemical Industry Co., Ltd., priority 2004, dated 2011)

Test system: brown planthoppers
Assay: Insecticidal test on brown planthoppers
Type: in vivo, Nilaparvata lugens
Conditions: active ingredient 500 ppm, germinating rice immersed, 4th-instar larvae, 25° C., 6 days
Experimental: Wettable powders were prepared in accordance with Formulation Example 2 and diluted with water to an active ingredient concentration of 500 ppm. Germinating rice was immersed in the resulting solutions and put in a plastic cup with a capacity of 60 ml. Ten 4th-instar larvae of brown planthoppers were released to the cup, and the cup was covered and placed in a thermostatic chamber at 25° C. for 6 days, and the survivors were counted for calculation of the insecticidal degree by using Equation 1. The test was carried out by one series system.

| Structure (SMILES) | Insecticidal degree (%) |
| --- | --- |
| CCc1nc(N)n(-c2cc(SCC(F)(F)F)c(C)cc2F)n1 [Compound 49] | 100 |
| C#CC[S+]([O-])c1nc(N)n(-c2cc(SCC(F)(F)F)c(C)cc2F)n1 (stereo not shown) [Compound 150] | 100 |
| Cc1cc(F)c(-n2nc(C(F)(F)F)nc2NN)cc1[S+]([O-])CC(F)(F)F (stereo not shown) [Compound 163] | 100 |
| Cc1cc(F)c(-n2nc(C(F)(F)F)nc2NC(=O)NC(C)C)cc1SCC(F)(F)F [Compound 201] | 100 |
| Cc1nc(N)n(-c2cc(SCC(F)(F)F)c(C)cc2F)n1 [Compound 105] | 90 |
| CC(=O)N(C)c1nc(SCC(F)(F)F)nn1-c1cc(SCC(F)(F)F)c(C)cc1F [Compound 158] | 90 |
| CC[S+]([O-])c1nc(N)n(-c2cc([S+]([O-])CC(F)(F)F)c(C)cc2F)n1 (stereo not shown) [Compound 24] | 90 |
| Cc1cc(F)c(-n2nc(C(F)(F)F)nc2NC(=O)CCl)cc1SCC(F)(F)F [Compound 189] | 100 |
| C#CCNc1nc(SCC(F)(F)F)nn1-c1cc(SCC(F)(F)F)c(C)cc1F [Compound 184] | 100 |
| CC(=O)Nc1nc(C(C)(C)C)nn1-c1cc(SCC(F)(F)F)c(C)cc1F [Compound 112] | 90 |
| CCS(=O)(=O)c1nc(N)n(-c2cc([S+]([O-])CC(F)(F)F)c(C)cc2F)n1 (stereo not shown) [Compound 26] | 90 |
| Cc1cc(F)c(-n2nc(C(F)(F)F)nc2NC(=O)N(C)C)cc1SCC(F)(F)F [Compound 83] | 10 |
| CCC(=O)Nc1nc(C(F)(F)F)nn1-c1cc(SCC(F)(F)F)c(C)cc1F [Compound 186] | 100 |
| CCC[S+]([O-])c1nc(N)n(-c2cc([S+]([O-])CC(F)(F)F)c(C)cc2F)n1 (stereo not shown) [Compound 137] | 100 |
| Cc1cc(F)c(-n2nc(C(F)(F)F)nc2NCC#N)cc1[S+]([O-])CC(F)(F)F (stereo not shown) [Compound 165] | 100 |
| Cc1cc(F)c(-n2nc(C(F)(F)F)nc2NC(=O)C(F)F)cc1[S+]([O-])CC(F)(F)F (racemic) [Compound 200] | 100 |
| CCN(CC)c1nc(C(F)(F)F)nn1-c1cc(SCC(F)(F)F)c(C)cc1F [Compound 128] | 100 |

Test system: southern root-knot nematodes
Assay: Nemastatic test on southern root-knot nematodes
Type: in vivo, Meloidogyne sp.
Conditions: diluted solution 20 ppm mixed 1:1 with suspension of second stage larvae, 25° C., 5 days
Experimental: Compounds of the present invention (5 parts) and Tween 20 (tradename for polyoxyethylene sorbitan monolaurate) (1 part) as a spreader were dissolved n N,N-dimethylformamide (94 parts) to prepare 5% emulsifiable concentrates of the compounds of the present invention. Distilled water was added to the emulsifiable concentrates to prepare diluted solutions having a concentration of the compounds of the present invention of 20 ppm. 0.5 ml of the diluted solutions and 0.5 ml of water suspensions containing 100 second stage larvae of southern root-knot nematodes were mixed, and the mixture were placed in a thermostatic chamber at 25° C. for 5 days, and the survivors were counted for calculation of the nemastatic degree by using Equation 3. The test was carried out by two series system.

| Structure (SMILES) | Nemastatic degree (%) |
| --- | --- |
| CNc1nc(C(F)(F)F)nn1-c1cc(SCC(F)(F)F)c(C)cc1Cl [Compound 97] | 97 |
| Cc1cc(F)c(-n2nc(C(C)C)nc2N)cc1SCC(F)(F)F [Compound 110] | 97 |
| Cc1cc(F)c(-n2nc(C(C(F)(F)F)C(F)(F)F)nc2N)cc1SCC(F)(F)F [Compound 182] | 91 |
| Nc1nc(C(F)(F)F)nn1-c1ccc(Cl)c(SCC(F)(F)F)c1 [Compound 126] | 94 |
| CCSc1nc(N)n(-c2cc(SCC(F)(F)F)c(C)cc2F)n1 [Compound 21] | 100 |
| Cc1cc(F)c(-n2nc(C(C)(C)C#N)nc2N)cc1SCC(F)(F)F [Compound 103] | 94 |
| Cc1cc(F)c(-n2nc(C(F)(F)F)nc2N)cc1SCC1CC1 [Compound 3] | 100 |
| Cc1cc(F)c(-n2nc(SCC(F)(F)F)nc2N)cc1SCC(F)(F)F [Compound 130] | 100 |
| CCc1nc(N)n(-c2cc(SCC(F)(F)F)c(C)cc2F)n1 [Compound 116] | 97 |
| Cc1cc(F)c(-n2nc(C(F)(F)F)nc2C(N)=O)cc1SCC(F)(F)F [Compound 207] | 100 |
| COC(=O)c1nc(C(F)(F)F)nn1-c1cc(SCC(F)(F)F)c(C)cc1F [Compound 203] | 92 |
| Cc1cc(F)c(-n2nc(C(F)(F)C(F)(F)C(F)(F)F)nc2N)cc1[S+]([O-])CC(F)(F)F (racemic) [Compound 175] | 97 |
| Cc1cc(F)c(-n2nc(SCC#N)nc2N)cc1SCC(F)(F)F [Compound 140] | 99 |
| Cc1cc(F)c(-n2nc(C(F)(F)F)nc2C(N)=O)cc1[S+]([O-])CC(F)(F)F (racemic) [Compound 208] | 100 |
